Results reported in patent US20260284214A1, “EXATECAN DERIVATIVE AND ANTIBODY-DRUG CONJUGATE THEREOF” (priority 2023, published 2026).

How the values were obtained:
[1] = tested on: BxPC-3 cells; assay: Cell inhibitory activity experiment of cytotoxic drug (CellTiter-Glo, 72 hours); type: cell-based, human; conditions: Homo sapiens
Experimental: (§1) Human pancreatic adenocarcinoma cells BxPC-3 (ATCC, article number: CRL-1687) and human pharyngeal squamous cell carcinoma cells FaDu (ATCC, article number: HTB-43) were washed with PBS, then the cells were digested with 0.25% Trypsin-EDTA trypsin for about 3 minutes, and the digestion was terminated with a complete cell culture medium. The cells were centrifuged at 1000 rpm for 5 minutes, the supernatant was discarded, and the cells were resuspended with a complete cell culture medium, counted by a cell counter, and adjusted to a required density. Each well was added with 50 μL of the cell suspension according to 3000 cells per well, and the cell plate was placed into a 5% CO2 cell incubator at 37° C. to incubate the cells for 12-16 hours.
(§2) The cell plate was taken out of the incubator to observe a cell adhesion state, and after cell adhesion, each well was added with 50 μL of the sample (starting from 10 μM, diluted 5 times, 9 concentrations), shaken gently, and then placed into an incubator to incubate the cells for 72 hours. Each well was added with a Cell Titer-GLO™ (Promega, article number: G7572) working solution according to 100 μL/well and shaken gently to lyse the cells, and the plate was read on a microplate reader.
(§3) Data analysis: a graph was made by GraphPad Prism 7.0 software with a Log value of a sample concentration as an abscissa and Cytotoxicity % as an ordinate, and data were subjected to Nonlinear regression (curve fit) analysis to obtain an IC50 value of each compound.

[2] = tested on: FaDu cells; assay: as above; type: cell-based, human; conditions: Homo sapiens
Experimental: as §1, §2, §3

Row | SMILES | IC50 [1] | IC50 [2]
1 | CC[C@@]1(O)C(=O)OCc2c1cc1n(c2=O)Cc2c-1nc1cc(F)c(C)c3c1c2[C@@H](NC(=O)N(CC#N)CCO)CC3 [Example 1, 1-(cyanomethyl)-3-((1S,9S)-9-ethyl-5-fluoro-9-hydroxy-4-methyl-10,13-dioxo-2,3,9,10,13,15-hexahydro-1H,12H-benzo[de]pyrano[3′,4′:6,7]indolizino[1,2-b]quinoline-1-yl)-1-(2-hydroxyethyl)urea] | 8.27 nM | 6.68 nM
2 | CC[C@@]1(O)C(=O)OCc2c1cc1n(c2=O)Cc2c-1nc1cc(F)c(C)c3c1c2[C@@H](NC(=O)N1C[C@H](O)CO1)CC3 [Example 4, (S)—N-((1S,9S)-9-ethyl-5-fluoro-9-hydroxy-4-methyl-10,13-dioxo-2,3,9,10,13,15-hexahydro-1H,12H-benzo[de]pyrano[3′,4′:6,7]indolizino[1,2-b]quinolin-1-yl)-4-hydroxyisoxazolidine-2-carboxamide] | 1.84 nM | 2.95 nM
3 | CC[C@@]1(O)C(=O)OCc2c1cc1n(c2=O)Cc2c-1nc1cc(F)c(C)c3c1c2[C@@H](NC(=O)N1C[C@@H](O)CO1)CC3 [Example 5, (R)—N-((1S,9S)-9-ethyl-5-fluoro-9-hydroxy-4-methyl-10,13-dioxo-2,3,9,10,13,15-hexahydro-1H,12H-benzo[de]pyrano[3′,4′:6,7]indolizino[1,2-b]quinolin-1-yl)-4-hydroxyisoxazoline-2-carboxamide] | < 0.1 nM | 0.75 nM
4 | CC[C@@]1(O)C(=O)OCc2c1cc1n(c2=O)Cc2c-1nc1cc(F)c(C)c3c1c2[C@@H](NC(=O)N(O)CCO)CC3 [Example 7, 3-((1S,9S)-9-ethyl-5-fluoro-9-hydroxy-4-methyl-10,13-dioxo-2,3,9,10,13,15-hexahydro-1H,12H-benzo[de]pyrano[3′,4′:6,7]indolizino[1,2-b]quinolin-1-yl)-1-hydroxy-1-(2-hydroxyethyl)urea] | 0.76 nM | < 0.1 nM
5 | CC[C@@]1(O)C(=O)OCc2c1cc1n(c2=O)Cc2c-1nc1cc(F)c(C)c3c1c2[C@@H](NC(=O)N(CCO)OC)CC3 [Example 8, 3-((1S,9S)-9-ethyl-5-fluoro-9-hydroxy-4-methyl-10,13-dioxo-2,3,9,10,13,15-hexahydro-1H,12H-benzo[de]pyrano[3′,4′:6,7]indolizino[1,2-b]quinolin-1-yl)-1-(2-hydroxyethyl)-1-methoxyurea] | 1.45 nM | 0.13 nM
6 | CC[C@@]1(O)C(=O)OCc2c1cc1n(c2=O)Cc2c-1nc1cc(F)c(C)c3c1c2[C@@H](NC(=O)N(C#N)CCO)CC3 [Example 9, 1-cyano-3-((1S,9S)-9-ethyl-5-fluoro-9-hydroxy-4-methyl-10,13-dioxo-2,3,9,10,13,15-hexahydro-1H,12H-benzo[de]pyrano[3′,4′:6,7]indolizino[1,2-b]quinolin-1-yl)-1-(2-hydroxyethyl)urea] | 2.15 nM | 2.34 nM
7 | CC[C@@]1(O)C(=O)OCc2c1cc1n(c2=O)Cc2c-1nc1cc(F)c(C)c3c1c2[C@@H](NC(=O)N1CC(O)C1)CC3 [Example 10, N-((1S,9S)-9-ethyl-5-fluoro-9-hydroxy-4-methyl-10,13-dioxo-2,3,9,10,13,15-hexahydro-1H,12H-benzo[de]pyrano[3′,4′:6,7]indolizino[1,2-b]quinolin-1-yl)-3-hydroxyazetidine-1-carboxamide] | 5.1 nM | 6.04 nM
8 | CC[C@@]1(O)C(=O)OCc2c1cc1n(c2=O)Cc2c-1nc1cc(F)c(C)c3c1c2[C@@H](NC(=O)N[C@H]1C[C@H](O)C1)CC3 [Example 12, 1-((1S,9S)-9-ethyl-5-fluoro-9-hydroxy-4-methyl-10,13-dioxo-2,3,9,10,13,15-hexahydro-1H,12H-benzo[de]pyrano[3′,4′:6,7]indolizino[1,2-b]quinolin-1-yl)-3-((1r,3S)-3-hydroxycyclobutyl)urea] | 5.77 nM | 42 nM
9 | CC[C@@]1(O)C(=O)OCc2c1cc1n(c2=O)Cc2c-1nc1cc(F)c(C)c3c1c2[C@@H](NC(=O)N1CC[C@H](O)C1)CC3 [Example 13, (S)—N-((1S,9S)-9-ethyl-5-fluoro-9-hydroxy-4-methyl-10,13-dioxo-2,3,9,10,13,15-hexahydro-1H,12H-benzo[de]pyrano[3′,4′:6,7]indolizino[1,2-b]quinolin-1-yl)-3-hydroxypyrrolidine-1-carboxamide] | 2.49 nM | 36 nM
10 | CC[C@@]1(O)C(=O)OCc2c1cc1n(c2=O)Cc2c-1nc1cc(F)c(C)c3c1c2[C@@H](NC(=O)N1CC[C@@H](O)C1)CC3 [Example 14, (R)—N-((1S,9S)-9-ethyl-5-fluoro-9-hydroxy-4-methyl-10,13-dioxo-2,3,9,10,13,15-hexahydro-1H,12H-benzo[de]pyrano[3′,4′:6,7]indolizino[1,2-b]quinolin-1-yl)-3-hydroxypyrrolidine-1-carboxamide] | 6.27 nM | 57.8 nM
11 | CC[C@@]1(O)C(=O)OCc2c1cc1n(c2=O)Cc2c-1nc1cc(F)c(C)c3c1c2[C@@H](NC(=O)N1CC(N)C1)CC3 [Example 15, 3-amino-N-((1S,9S)-9-ethyl-5-fluoro-9-hydroxy-4-methyl-10,13-dioxo-2,3,9,10,13,15-hexahydro-1H,12H-benzo[de]pyrano[3′,4′:6,7]indolizino[1,2-b]quinolin-1-yl) azetidine-1-carboxamide] | 20.5 nM | 11.4 nM
12 | CC[C@@]1(O)C(=O)OCc2c1cc1n(c2=O)Cc2c-1nc1cc(F)c(C)c3c1c2[C@@H](NC(=O)N[C@H]1C[C@@H](N)C1)CC3 [Example 16] | 7.93 nM | 4.33 nM
13 | CC[C@@]1(O)C(=O)OCc2c1cc1n(c2=O)Cc2c-1nc1cc(F)c(C)c3c1c2[C@@H](NC(=O)N[C@H]1C[C@H](N)C1)CC3 [Example 17] | 4.04 nM | 2.26 nM
14 | CC[C@@]1(O)C(=O)OCc2c1cc1n(c2=O)Cc2c-1nc1cc(F)c(C)c3c1c2[C@@H](NC(=O)NC1CNC1)CC3 [Example 18, 1-(azetidin-3-yl)-3-((1S,9S)-9-ethyl-5-fluoro-9-hydroxy-4-methyl-10,13-dioxo-2,3,9,10,13,15-hexahydro-1H,12H-benzo[de]pyrano[3′,4′:6,7]indolizino[1,2-b]quinolin-1-yl)urea] | 40.8 nM | 16.9 nM
15 | CC[C@@]1(O)C(=O)OCc2c1cc1n(c2=O)Cc2c-1nc1cc(F)c(C)c3c1c2[C@@H](NC(=O)O[C@H]1C[C@@H](N)C1)CC3 [Example 19, (1S,3R)-3-aminocyclobutyl((1S,9S)-9-ethyl-5-fluoro-9-hydroxy-4-methyl-10,13-dioxo-2,3,9,10,13,15-hexahydro-1H,12H-benzo[de]pyrano[3′,4′:6,7]indolizino[1,2-b]quinolin-1-yl)carbamate] | 3.69 nM | 3.97 nM
16 | CC[C@@]1(O)C(=O)OCc2c1cc1n(c2=O)Cc2c-1nc1cc(F)c(C)c3c1c2[C@@H](NC(=O)O[C@H]1C[C@H](N)C1)CC3 [Example 20, (1R,3S)-3-aminocyclobutyl((1S,9S)-9-ethyl-5-fluoro-9-hydroxy-4-methyl-10,13-dioxo-2,3,9,10,13,15-hexahydro-1H,12H-benzo[de]pyrano[3′,4′:6,7]indolizino[1,2-b]quinolin-1-yl)carbamate] | 3.05 nM | 2 nM
17 | CC[C@@]1(O)C(=O)OCc2c1cc1n(c2=O)Cc2c-1nc1cc(F)c(C)c3c1c2[C@@H](NC(=O)OC1CNC1)CC3 [Example 21, azetidine-3-yl((1S,9S)-9-ethyl-5-fluoro-9-hydroxy-4-methyl-10,13-dioxo-2,3,9,10,13,15-hexahydro-1H,12H-benzo[de]pyrano[3′,4′:6,7]indolizino[1,2-b]quinolin-1-yl)carbamate] | 29.2 nM | 19.8 nM
